Source: patent US4659825A, “Isomeric O-phosphonylmethyl derivatives of enantiomeric and racemic 9-(2,3-dihydroxypropyl)adenine” (Ceskoslovenska akademie, priority 1983, dated 1987)

System: Pyrrhocoris apterus L.
Assay: Ovicidal activity (chemosterilizing): inhibition of egg hatching in the first and second egg batch after oral administration to adults of both sexes
Format: in vivo
Conditions: drinking water
Protocol: The test animals were freshly emerged adults of Pyrrhocoris apterus L. and the tested compounds were administered as solutions in drinking water. The concentration 1 mg.ml^-1 corresponded to the dose of 1 mg/g/24 h. Each test was performed on a group of 10 males and 10 females and evaluated according to toxicity and hatchability of the eggs of the first and the second egg batches.

Compound	Inhibition of egg hatching in the first and second egg batch (% inhibition, related to control eggs) (0.1 mg.ml^-1 of water)	Inhibition of egg hatching in the first and second egg batch (% inhibition, related to control eggs) (0.01 mg.ml^-1 of water)	Inhibition of egg hatching in the first and second egg batch (% inhibition, related to control eggs) (0.05 mg.ml^-1 of water)	Inhibition of egg hatching in the first and second egg batch (% inhibition, related to control eggs) (1.0 mg.ml^-1 of water (1 mg.ml^-1 corresponded to the dose of 1 mg/g/24 h))
Nc1ncnc2c1ncn2CC(CO)OCP(=O)(O)O (racemic) [2'-isomer]	27%			
Nc1ncnc2c1ncn2CC(O)COCP(=O)(O)O (racemic) [3'-isomer]	61%			
Nc1ncnc2c1ncn2CC(O)CO (racemic) [compound 3, (RS)-9-(2,3-dihydroxypropyl)adenine]	37%	0%	10%	100%
